Entries after “also recorded” stand apart in the source; their conditions may differ. Like-named read-outs stand apart in the source and are kept apart here.
Legend:
[1] = Directional transport of [14C]-olaparib across MDCKII control (empty vector) monolayers; format: in vitro ADME, canine; settings: dog, MDCK
Experimental: (§1) Canine kidney epithelial cells, stably expressing human MDR1 cDNA (Madin-Darby canine kidney type II [MDCKII]–MDR1 cells) or empty vector (MDCKII control), were used to model the intact BBB and determine permeability coefficients of (^14C)-olaparib in the presence of ketoconazole (25 μM). Whole body autoradiography was performed on male pigmented rats after single oral administration of [^14C]-olaparib (15 mg/kg; 5 MBq/kg). For autoradiography studies, animal care and experiments were carried out in accordance with AstraZeneca guidelines, which comply with UK standards. […] Xenograft experiments were performed under the relevant UK Home Office Project Licence and carried out with ethical approval from the University of Glasgow under the Animal (Scientific Procedures) Act 1986 and the EU directive 2010. Mice were maintained in individually ventilated cages with environmental enrichment and following the guidelines of ARRIVE (Animal Research: Reporting of In Vivo Experiments). […] Ratiometric t-test analysis determined SER confidence intervals and P-values. Further details are available in the Supplementary Material.
(§2) Apparent permeability coefficients were calculated for apical to basolateral (Papp a‒b) and basolateral to apical transport (Papp b‒a) as described in Methods. […] (B) Single oral doses of 15 mg/kg [14C]-olaparib were administered to male pigmented rats that were subsequently culled, sectioned, and subjected to whole body autoradiography at the timepoints shown. Radioactivity was excluded from the central nervous system in all animals at all timepoints. […] Blood, tumor, and contralateral (non tumor bearing) brain were harvested and snap frozen at the time points shown. […] Note different y-axis scales.
Monolayers were cultured in Dulbeco’s Modified Eagle Medium (DMEM) supplemented with glucose (4.5 g/L), 10% fetal calf serum, penicillin and streptomycin on semi-permeable filter inserts (Transwell plates 3401, Costar, Cambridge, MA) for three days. Under these conditions MDR1 localises to the apical plasma membrane. Monolayer integrity was assessed by transepithelial electrical resistance (TEER) measurement then inserts washed with Hank’s Balanced Salt Solution (HBSS) and transferred to 12-well plates containing HBSS (to measure apical to basal transport, a – b) or [14C]-olaparib diluted in HBSS (dose solution, to measure basal to apical transport, b – a). After addition of dose solution (a – b) or HBSS (b – a) to the apical chamber, samples of apical and basolateral compartments were collected immediately after dosing and after 120 minutes incubation. Three concentrations of 14C-olaparib were tested (0.1, 1 and 10 µM), each in three replicates. Radioactivity was determined by liquid scintillation counting. […] Transport of olaparib or reference substrate cimetidine was determined in MDCKII-BCRP cells. Apparent permeability coefficients (Papp) were calculated:
Efflux ratio = Papp b - a /a - b = Papp b - a / Papp a - b (mean)

[2] = Olaparib PK in mice bearing intracranial G7 GBM xenografts (mass spectrometry); format: in vivo, CD1 nude mice; settings: 50 mg/kg
Experimental: as §1, §2

[3] = Clinical PK: olaparib in tumor core, tumor margin and plasma of recurrent GBM patients (LC-MS); format: in vivo, human; settings: for Kp: human, tumor and plasma, oral, ratio between tumor and plasma olaparib concentrations, surgical patients
Experimental: At neurosurgery, contrast-enhancing tumor regions identified on preoperative MRI scans were targeted for resection. Specimens were assessed by intraoperative cytology; 3 regions of viable, solid tumor from each patient were snap frozen for PK analysis by liquid chromatography mass spectrometry (LC-MS). In the expansion cohort, 5-ALA guided neurosurgery enabled discrimination of fluorescent “core” tissue from nonfluorescent “margin” tissue. Up to 3 tumor margin biopsies were taken from each patient, from each of which half was frozen for PK analysis and half fixed for histology.
100 mg q.d., n = 10; 150 mg q.d., n = 35; 200 mg b.i.d., n = 3. […] All measurements performed by LC-MS.

[4] = test system: E2 cells; assay: Clonogenic survival radiosensitization assay; format: cell-based, human; settings: E2, MGMT methylated, 1–5 Gy
Experimental: as §1
(§3) Visible colonies containing at least 50 cells were counted 14–21 days after treatment and surviving fraction calculated. The linear quadratic model was fitted using maximum likelihood estimation and integrated to determine the mean inactivation dose (MID) for each experimental condition.

[5] = test system: G1 cells; assay: Clonogenic survival radiosensitization assay; format: cell-based, human; settings: G1, MGMT methylated, olaparib 100 nM, 1–5 Gy
Experimental: as §1, §3

[6] = test system: G7 cells; assay: Clonogenic survival radiosensitization assay; format: cell-based, human; settings: G7, MGMT methylated, 1–5 Gy
Experimental: as §1, §3

[7] = test system: R10 cells; assay: Clonogenic survival radiosensitization assay; format: cell-based, human; settings: R10, MGMT methylated, 1–5 Gy
Experimental: as §1, §3

[8] = test system: T98G cells; assay: Clonogenic survival radiosensitization assay; format: cell-based, human; settings: MGMT unmethylated, 1–5 Gy
Experimental: as §1, §3

[9] = test system: UVW cells; assay: Clonogenic survival radiosensitization assay; format: cell-based, human; settings: MGMT methylated, 1–5 Gy
Experimental: as §1, §3

[10] = biological target: T1, MDR1 (Homo sapiens, UniProt P08183); assay: Directional transport of [14C]-olaparib across MDCKII-MDR1 monolayers, with or without ketoconazole; format: in vitro ADME
T1 construct: host or cells: MDCKII (Madin-Darby canine kidney type II) cells stably expressing human MDR1 cDNA

[11] = 200 mg b.i.d. for 7 doses before resection, 9 samples from 3 patients
[12] = 21 tumor margin samples, 9 dose expansion patients
[13] = of 16 RP2D patients, olaparib with TMZ

T1 sequence (P08183 whole entry): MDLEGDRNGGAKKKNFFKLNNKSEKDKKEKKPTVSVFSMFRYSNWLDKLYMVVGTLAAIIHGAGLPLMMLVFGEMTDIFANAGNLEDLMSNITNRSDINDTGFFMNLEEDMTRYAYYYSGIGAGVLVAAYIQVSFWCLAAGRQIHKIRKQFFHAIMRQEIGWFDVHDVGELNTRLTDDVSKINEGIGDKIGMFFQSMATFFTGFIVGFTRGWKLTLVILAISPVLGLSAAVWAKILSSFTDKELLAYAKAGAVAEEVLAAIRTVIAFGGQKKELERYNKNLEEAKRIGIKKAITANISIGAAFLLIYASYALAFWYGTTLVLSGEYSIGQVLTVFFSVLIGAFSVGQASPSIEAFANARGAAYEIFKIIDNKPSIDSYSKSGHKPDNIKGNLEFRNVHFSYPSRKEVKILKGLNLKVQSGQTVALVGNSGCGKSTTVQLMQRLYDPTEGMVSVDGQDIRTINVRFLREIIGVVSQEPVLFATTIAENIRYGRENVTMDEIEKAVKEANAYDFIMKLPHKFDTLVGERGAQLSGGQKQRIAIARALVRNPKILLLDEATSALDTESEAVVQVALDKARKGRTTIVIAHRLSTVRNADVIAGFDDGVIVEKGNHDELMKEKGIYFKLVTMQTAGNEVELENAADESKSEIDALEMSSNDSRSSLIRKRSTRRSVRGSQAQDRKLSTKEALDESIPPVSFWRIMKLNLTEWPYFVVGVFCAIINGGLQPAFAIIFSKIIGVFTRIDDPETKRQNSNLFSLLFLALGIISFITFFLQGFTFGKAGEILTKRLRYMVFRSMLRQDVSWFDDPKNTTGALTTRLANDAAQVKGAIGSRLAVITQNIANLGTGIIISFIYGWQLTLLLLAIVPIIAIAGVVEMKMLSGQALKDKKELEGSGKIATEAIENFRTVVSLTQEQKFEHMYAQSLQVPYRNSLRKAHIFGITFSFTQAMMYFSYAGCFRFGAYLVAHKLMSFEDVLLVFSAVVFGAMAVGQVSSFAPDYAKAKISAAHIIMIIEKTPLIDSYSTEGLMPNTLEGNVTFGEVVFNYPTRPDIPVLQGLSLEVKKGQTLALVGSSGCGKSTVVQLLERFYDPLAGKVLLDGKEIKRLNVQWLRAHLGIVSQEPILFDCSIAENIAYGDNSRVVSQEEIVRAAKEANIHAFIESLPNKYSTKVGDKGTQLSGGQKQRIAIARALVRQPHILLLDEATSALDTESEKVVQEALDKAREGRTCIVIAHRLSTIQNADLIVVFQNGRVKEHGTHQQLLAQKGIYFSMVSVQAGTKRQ

Question: Which Papp A→B at 120 min, 1 µM [1] does the source give for O=C(c1cc(Cc2n[nH]c(=O)c3ccccc23)ccc1F)N1CCN(C(=O)C2CC2)CC1 [olaparib, 4-[3-(4-cyclopropanecarbonylpiperazine-1-carbonyl)-4-fluorobenzyl]-2H-phthalazin-1-one] here?
Answer: The Papp A→B at 120 min, 1 µM was 1.66 ×10⁻⁶ cm/s.

Question: What about the Papp A→B at 120 min, 3 µM [1] of the same molecule?
Answer: The Papp A→B at 120 min, 3 µM was 2.23 ×10⁻⁶ cm/s.

Question: What about the Papp A→B at 120 min, 10 µM [1] of the same molecule?
Answer: The Papp A→B at 120 min, 10 µM was 2.46 ×10⁻⁶ cm/s.

Question: And the Papp B→A at 120 min, 1 µM [1]?
Answer: Its Papp B→A at 120 min, 1 µM is 32 ×10⁻⁶ cm/s.

Question: And the Papp B→A at 120 min, 3 µM [1]?
Answer: The Papp B→A at 120 min, 3 µM was 29.7 ×10⁻⁶ cm/s.

Question: What about the Papp B→A at 120 min, 10 µM [1] of the same molecule?
Answer: Its Papp B→A at 120 min, 10 µM is 28.1 ×10⁻⁶ cm/s.

Question: And the “olaparib in contralateral hemisphere” value ([2]; 5 and 24 hours)?
Answer: The value was “undetectable”.

Question: And the “olaparib in tumor specimens” value ([2]; 5 hours)?
Answer: Its value is “detectable in one tumor specimen”.

Question: And the concentration at 2 h ([2]; CD1 nude, mouse, contralateral (non-tumor bearing) brain, oral, contralateral (non-tumor bearing) cerebral hemisphere olaparib concentration, median, 50 mg/kg oral gavage)?
Answer: Its concentration at 2 h is 84 nM.

Question: And the concentration at 2 h ([2]; CD1 nude, mouse, contralateral (non-tumor bearing) brain, oral, contralateral (non-tumor bearing) cerebral hemisphere olaparib concentration, range, 50 mg/kg oral gavage)?
Answer: The concentration at 2 h was 53 to 114 nM.

Question: What about the concentration at 2 h ([2]; CD1 nude, mouse, plasma, oral, plasma olaparib level, median, 50 mg/kg oral gavage) of the same molecule?
Answer: The concentration at 2 h was 1590 nM.

Question: What about the concentration at 5 h ([2]; CD1 nude, mouse, plasma, oral, plasma olaparib level, median, 50 mg/kg oral gavage, 5 hours) of the same molecule?
Answer: The concentration at 5 h was 230 nM.

Question: What about the concentration at 2 h ([2]; CD1 nude, mouse, plasma, oral, plasma olaparib level, range, 50 mg/kg oral gavage) of the same molecule?
Answer: Its concentration at 2 h is 773 to 2830 nM.

Question: And the concentration at 2 h ([2]; CD1 nude, mouse, tumor, po, tumor olaparib concentration, median, intracranial G7 xenograft, 50 mg/kg oral gavage)?
Answer: Its concentration at 2 h is 347 nM.

Question: And the concentration at 2 h ([2]; CD1 nude, mouse, tumor, po, tumor olaparib concentration, range, intracranial G7 xenograft, 50 mg/kg oral gavage, 4 mice)?
Answer: The concentration at 2 h was 110 to 2780 nM.

Question: And the “mean olaparib concentration in stage 1 tumor samples” value [3, 11]?
Answer: The value was 471 nM.

Question: And the “olaparib concentration in stage 1 tumor samples, range” value [3, 11]?
Answer: Its value is 164 to 992 nM.

Question: What about the “tumor margin specimens with olaparib detected” value ([3]; 9 patients) of the same molecule?
Answer: The value was 21/21.

Question: And the “tumor margin olaparib concentration, median” value [3, 12]?
Answer: Its value is 512.3 nM.

Question: What about the “tumor margin olaparib concentration, range” value [3, 12] of the same molecule?
Answer: Its value is 97 to 1237 nM.

Question: What about the “tumor core specimens with olaparib detected” value ([3]; 27 patients) of the same molecule?
Answer: The value was 71/71.

Question: And the “tumor core olaparib concentration, range” value ([3]; 71 tumor core samples, 27 surgical patients)?
Answer: Its value is 97 to 1374 nM.

Question: What about the “tumor core olaparib concentration, median” value ([3]; 71 tumor core samples, 27 surgical patients, 3–5 hours after final preoperative dose) of the same molecule?
Answer: Its value is 496 nM.

Question: What about the Kp ([3]; mean) of the same molecule?
Answer: The Kp was 0.25.

Question: And the Kp ([3]; range)?
Answer: The Kp was 0.01 to 0.9.

Question: What about the “tumor olaparib concentrations, range in all specimens” value ([3]; tumor core and margin) of the same molecule?
Answer: The value was 100 to 1000 nM.

Question: And the “SER (95% CI) 100nM” value ([4]; olaparib 100 nM)?
Answer: The value was 1.237 (1.065 - 1.441).

Question: What about the “SER (95% CI) 500nM” value ([4]; olaparib 500 nM) of the same molecule?
Answer: The value was 1.221 (1.076 - 1.378).

Question: And the “SER (95% CI) 100nM” value [5]?
Answer: The value was 1.225 (1.01 - 1.513).

Question: What about the “SER (95% CI) 100nM” value ([6]; olaparib 100 nM) of the same molecule?
Answer: The value was 1.105 (1.018 - 1.200).

Question: And the “SER (95% CI) 500nM” value ([6]; olaparib 500 nM)?
Answer: The value was 1.188 (1.029 - 1.390).

Question: What about the “SER (95% CI) 100nM” value ([7]; olaparib 100 nM) of the same molecule?
Answer: The value was 1.266 (0.991 - 1.565).

Question: What about the “SER (95% CI) 500nM” value ([7]; olaparib 500 nM) of the same molecule?
Answer: Its value is 1.281 (0.966 - 1.721).

Question: What about the “SER (95% CI) 100nM” value ([8]; olaparib 100 nM) of the same molecule?
Answer: The value was 1.42 (1.128 - 1.883).

Question: What about the “SER (95% CI) 500nM” value ([8]; olaparib 500 nM) of the same molecule?
Answer: Its value is 1.584 (1.464 - 1.71).

Question: What about the “SER (95% CI) 100nM” value ([9]; olaparib 100 nM) of the same molecule?
Answer: Its value is 1.478 (1.28 - 1.726).

Question: What about the “SER (95% CI) 500nM” value ([9]; olaparib 500 nM) of the same molecule?
Answer: Its value is 1.695 (1.407 - 2.098).

Question: And the “patients needing dose reductions for neutropenia (grade 3) and thrombocytopenia (grade 2)” value (cohort 1, olaparib with TMZ)?
Answer: The value was 2.

Question: What about the DLT (cohort 3, olaparib with TMZ, one DLT) of the same molecule?
Answer: The DLT was “grade 3 vomiting”.

Question: What about the “toxicity and tolerability of schedule” value (cohort 4, olaparib with TMZ, one patient) of the same molecule?
Answer: The value was “toxic death associated with pancytopenia, septic shock, and renal failure”.

Question: What about the “grade 2 nausea, patients” value [13] of the same molecule?
Answer: The value was 1.

Question: What about the “grade 2 pruritus, patients” value [13] of the same molecule?
Answer: The value was 1.

Question: What about the “grade 2 vomiting, patients” value [13] of the same molecule?
Answer: Its value is 1.

Question: What about the “grade 3–4 anemia, patients” value [13] of the same molecule?
Answer: Its value is 3.

Question: And the “grade 3–4 lymphopenia, patients” value [13]?
Answer: Its value is 7.

Question: What about the “grade 3–4 neutropenia, patients” value [13] of the same molecule?
Answer: The value was 2.

Question: What about the “grade 3–4 thrombocytopenia, patients” value [13] of the same molecule?
Answer: Its value is 4.

Question: What about the “patients with grade 3–4 hematological toxicities” value [13] of the same molecule?
Answer: The value was 7.

Question: And the “effect on TMZ-related hematological toxicity” value (olaparib with TMZ)?
Answer: The value was “exacerbated”.

Question: What about the “MTD / RP2D, olaparib dose” value (once daily, days 1–3 per week, with TMZ 75 mg/m^2 daily for 42 days) of the same molecule?
Answer: Its value is 150 mg.

Question: And the Papp A→B at 120 min, 3 µM ([10]; human, MDCK-MDR1)?
Answer: The Papp A→B at 120 min, 3 µM was 0.53 ×10⁻⁶ cm/s.

Question: And the Papp B→A at 120 min, 3 µM ([10]; human, MDCK-MDR1, with ketoconazole 25 µM, read-out: Papp b-a + ketoconazole (SD))?
Answer: Its Papp B→A at 120 min, 3 µM is 16.3 ×10⁻⁶ cm/s.

Question: And the Papp B→A at 120 min, 3 µM ([10]; human, MDCK-MDR1, read-out: Papp b-a (SD))?
Answer: The Papp B→A at 120 min, 3 µM was 42.7 ×10⁻⁶ cm/s.

Question: What about the MDR1 substrate status ([10]; olaparib 1–10 µM) of the same molecule?
Answer: Its MDR1 substrate status is “substrate for multidrug resistance protein 1; also recorded: substrate for MDR1”.

Question: And the “reduction of apparent permeability of MDCKII-MDR1 cells to olaparib by ketoconazole” value ([10]; olaparib 1–10 µM, ketoconazole 25 µM)?
Answer: The value was 40–62%.
